In patent US10632211B2, “Demethylation to treat eye disease” (The Regents of the University of California, priority 2018, dated 2020):

Tests used:
mouse eyes = assay: Scotopic ERG response in mouse eyes after intraocular injection; format: in vivo; details: 1 μL of 2 μM intraocular every other week for 2 months from age 10 months, vs PBS eye (FIG. 5C, FIG. 13)
Method: (§1) Finally, it was investigated whether the aging characteristics in mouse eyes could be reverted by DNA demethylation, including the ELOVL2 promoter. To do that, each mouse was injected with 1 μL of 2 μM 5-Aza-dc in one eye and 1 μL of PBS in the other eye, every other week over a period of 2 months starting at age of 10 months. It was found, using the MeDIP method, that methylation of the ELOVL2 promoter decreased after treatment (FIG. 5A).
(§2) All animal procedures were conducted with the approval of the Institutional Animal Care Committee at the University of California, San Diego. C57BL/6N mouse zygotes were injected with CRISPR-Cas9 constructs. Oligos were injected into the cytoplasm of the zygotes at the pronuclei stage. Mice were housed on static racks in a conventional animal facility, and were fed ad libitum with Teklad Global 2020X diet. For the 5-Aza-dc injection study, mice were anesthetized by intraperitoneal injection of ketamine/xylazine (100 mg/kg and 10 mg/kg, respectively), and given an analgesic eye drop of Proparacaine (0.5%, Bausch & Lomb). Animals were intraocularly injected with 1 μL of PBS in one eye, and 1 μL of 2 μM 5-Aza-dc dissolved in PBS in the contralateral eye, every other week over a period of 2 months.
Electroretinograms (ERGs) were performed following a previously reported protocol. […]

ELOVL2 expression [1] = assay: ELOVL2 expression by qPCR in mouse retinas after intraocular injection; format: in vivo; details: mouse retina, 1 μL of 2 μM intraocular every other week for 2 months from age 10 months, vs PBS eye; qPCR (FIG. 5B)
Method: as §1
(§3) DNA and RNA were isolated from human fibroblasts and mouse tissues with TRIzol (Ambion) according to manufacturer's instructions. RNA was converted to cDNA with iScript cDNA Synthesis Kit (Bio-Rad). qPCR was performed using SsoAdvanced Universal SYBR Green Supermix (Bio-Rad).
as §2, with “Animals were intraocularly injected with 1 μL of PBS in one eye, and 1 μL of 2 μM 5-Aza-dc dissolved in PBS in the contralateral eye, every other week over a period of 2 months.” left out

ELOVL2 expression [2] = assay: ELOVL2 expression by qRT-PCR in 5-Aza-dc treated WI-38 cells; format: cell-based, human; details: WI-38 fibroblasts, 2 μM for 2 days followed by 5 days without the compound; qRT-PCR vs untreated control (FIG. 2B)
Method: (§4) The effect of the ELOVL2 promoter methylation level on ELOVL2 expression was tested. WI-38 fibroblasts were treated with 5-Aza-2′-deoxycytidine (5-Aza-dc), a cytidine analog that inhibits DNA methyltransferase. The cells were treated for 2 days with 2 μM 5-Aza-dc followed by 5 days of culture without the compound. At the end of experiment, the expression of ELOVL2 was measured by qRT-PCR.
(§5) WI-38 and IMR-90 human fibroblasts were cultured in EMEM (ATCC) supplemented with 10% fetal bovine serum (Omega) and 1% penicillin/streptomycin (Gibco), and kept in a humidified incubator at 5% CO2 and 37° C. Confluence was calculated via ImageJ imaging software, including 3 fields of view per sample (10×). Upon confluence, cells were split and seeded at a 1:3 ratio. Population doublings (PD) were calculated by cell count. Knockdown lentivirus was generated using MISSION shRNA (Sigma) according to the manufacturer's instructions. 5-Aza-2′-deoxycitidine was purchased from TSZ Chem (CAS #2353-33-5), and dissolved in cell culture medium at a concentration of 2 μM. Cells were treated for a period of 48 hours. The medium was then replaced with regular cell culture medium, and the cells were cultured for 5 more days.
(§6) DNA and RNA were isolated from human fibroblasts and mouse tissues with TRIzol (Ambion) according to manufacturer's instructions. […]

ELOVL2 promoter [3] = assay: ELOVL2 promoter methylation by MeDIP followed by qPCR in 5-Aza-dc treated WI-38 cells; format: cell-based, human; details: WI-38 fibroblasts, 2 μM for 2 days followed by 5 days of culture without the compound; MeDIP-qPCR vs untreated control (FIG. 2A)
Method: as §4, §5, §6

ELOVL2 gene expression = assay: Human clinical use example: ELOVL2 gene expression in intravitreal fluid after intravitreal decitabine; format: in vivo
Method: (§7) A person with bilateral, dry age-related macular degeneration (AMD) is seen in an ophthalmology clinic. They are otherwise healthy. They consent to an experimental study comparing demethylation therapy verses control. At baseline both eyes show a similar level of AMD as evidenced by clinical assessments for visual acuity, size of geographic atrophy as measured by autofluorescence, optical coherence tomography, and scotopic response on electroretinography. The patient is treated with 100 uL of decitabine (20 uM) formulated as a sterile, isotonic, pH buffered solution administered by intravitreal injection in their left eye (active treatment). They receive 100 ul of the same sterile, isotonic, pH buffered solution but without decitabine administered by intravitreal injection in their right eye (control treatment). Immediately following the administration of the active and control treatments, a sample of intravitreal fluid is withdrawn from each eye for baseline measurements of ELOVL2 expression and methylation level. It is observed that ELOVL2 is hypermethylated to a similar extent in both eyes. The levels of ELOVL2 expression are also similar and a low level of expression is observed in both eyes. […]
(§8) A person with dry age-related macular degeneration (AMD) with Geographic Atrophy is seen in an ophthalmology clinic. Their vision as assessed by scotopic response is declining. […]

WI-38 cells = assay: Senescence-associated β-galactosidase staining of 5-Aza-dc treated WI-38 cells; format: cell-based, human; details: WI-38 fibroblasts, 2 μM; SA-β-Gal staining (FIG. 2C)
Method: as §4
as §5, with “5-Aza-2′-deoxycitidine was purchased from TSZ Chem (CAS #2353-33-5), and dissolved in cell culture medium at a concentration of 2 μM. Cells were treated for a period of 48 hours. The medium was then replaced with regular cell culture medium, and the cells were cultured for 5 more days.” left out
The SA-β-gal activity in cultured cells was determined using the Senescence β-Galactosidase Staining Kit (Cell Signaling Technology), according to the manufacturer's instructions. Cells were stained with DAPI afterwards, and percentages of cells that stained positive were calculated with imaging software (Keyence), including 3 fields of view (10×).

ELOVL2 methylation = assay: Human clinical use example: ELOVL2 methylation in intravitreal fluid after intravitreal decitabine; format: in vivo
Method: as §7, §8

patient with dry AMD [4] = assay: Human clinical use example: tolerability of intravitreal decitabine; format: in vivo
Method: as §7, §8

ELOVL2 promoter [5] = assay: ELOVL2 methylation by MeDIP in mouse retinas after intraocular injection; format: in vivo; details: mouse retina, 1 μL of 2 μM intraocular every other week for 2 months from age 10 months, vs PBS eye; MeDIP (FIG. 5A)
Method: as §1, §3
Methylated DNA Immunoprecipitation (MeDIP) was performed by shearing 1 μg DNA by Bioruptor (Diagenode) for 8 cycles on the high setting, each cycle consisting of 30 seconds on and 30 seconds off. Sheared DNA was denatured, incubated with 1 μg 5 mC antibody MABE146 (Millipore) for 2 hours, then with SureBeads protein G beads (Bio-Rad) for 1 hour. After washing, DNA was purified with QIAquick PCR Purification Kit (Qiagen). qPCR was then performed as above.
All animal procedures were conducted with the approval of the Institutional Animal Care Committee at the University of California, San Diego. C57BL/6N mouse zygotes were injected with CRISPR-Cas9 constructs. […]

patient with dry AMD [6] = assay: Human clinical use example: clinical assessments (scotopic response, geographic atrophy) after intravitreal decitabine; format: in vivo
Method: A person with bilateral, dry age-related macular degeneration (AMD) is seen in an ophthalmology clinic. They are otherwise healthy. They consent to an experimental study comparing demethylation therapy verses control. At baseline both eyes show a similar level of AMD as evidenced by clinical assessments for visual acuity, size of geographic atrophy as measured by autofluorescence, optical coherence tomography, and scotopic response on electroretinography. The patient is treated with 100 uL of decitabine (20 uM) formulated as a sterile, isotonic, pH buffered solution administered by intravitreal injection in their left eye (active treatment). They receive 100 ul of the same sterile, isotonic, pH buffered solution but without decitabine administered by intravitreal injection in their right eye (control treatment). Immediately following the administration of the active and control treatments, a sample of intravitreal fluid is withdrawn from each eye for baseline measurements of ELOVL2 expression and methylation level. It is observed that ELOVL2 is hypermethylated to a similar extent in both eyes. The levels of ELOVL2 expression are also similar and a low level of expression is observed in both eyes. Both the active and control treatments are continued in the left and right eyes respectively with administrations every other week for 3 months. […] Immediately following the last administration, samples of intravitreal fluid are obtained from both eyes for measurement of ELOVL2 gene expression and methylation. The same clinical assessments for geographic atrophy performed at baseline are repeated for each eye. Significant differences are observed between the eye treated with decitabine compared to control. In the decitabine treated eye, ELOVL2 methylation is reduced by almost 30% and ELOVL2 gene expression is increased also by about 30% compared to baseline. Also, the scotopic response is increased by about 30% over baseline. […] In marked contrast, there is no observable change in the control eye in any of the other parameters. Gene methylation and gene expression and scotopic response values remain similar to those observed at baseline values. The patient returns to the clinic for a follow up visit at 6 months. […] Scotopic response in the control eye remains similar to the baseline value.
A person with dry age-related macular degeneration (AMD) with Geographic Atrophy is seen in an ophthalmology clinic. Their vision as assessed by scotopic response is declining. […] They are otherwise healthy. The patient is treated with 100 uL of decitabine (15 uM) formulated as a sterile, isotonic, pH buffered solution administered by intravitreal injection. […] The decitabine treatment is continued with the same dose administered every 5 weeks over a 12 month period. […] Following the last decitabine administration a sample of vitreous fluid is obtained and tested for ELOVL2 gene methylation and ELOVL2 gene expression. The studies reveal ELOVL2 methylation has decreased by almost 60% (from baseline) and ELOVL2 gene expression is increased by about 50% (over the baseline value).

[7] = Geographic Atrophy patient, 100 uL of 15 uM intravitreal every 5 weeks over 12 months
[8] = dry AMD patient, 100 uL of 20 uM intravitreal every other week for 3 months

For `Nc1ncn([C@H]2C[C@H](O)[C@@H](CO)O2)c(=O)n1` [5-Aza-dc, 5-Aza-2′-deoxycytidine], the “scotopic response (ERG)” value (mouse eyes) was “improved”, the ELOVL2 expression (ELOVL2 expression [1]) was “upregulated” and the ELOVL2 expression (ELOVL2 expression [2]) was “upregulated”. The ELOVL2 promoter methylation (ELOVL2 promoter [3]) was “reduced”, the “ELOVL2 gene expression increased over the baseline value” (ELOVL2 gene expression; [7]) was “about 50%” and the “ELOVL2 gene expression increased compared to baseline” value (ELOVL2 gene expression; [8]) was “about 30%”. For the same molecule, the “percentage of senescent cells in culture” value (WI-38 cells) was “lower percentage of senescent cells”, the “ELOVL2 methylation decreased from baseline” value (ELOVL2 methylation; [7]) was about 60% and the “ELOVL2 methylation reduced compared to baseline” value (ELOVL2 methylation; [8]) was “about 30%”. The tolerability (patient with dry AMD [4]; [7]) was “well tolerated with no adverse effects observed”, the tolerability (patient with dry AMD [4]; [8]) was “equally well tolerated” and the “methylation of the ELOVL2 promoter” value (ELOVL2 promoter [5]) was “decreased”. The “geographic atrophy growth by fundus autofluorescence” value (patient with dry AMD [6]; [7]) was “no geographic atrophy growth”, the “scotopic response increased over baseline” value (patient with dry AMD [6]; [7]) was “about 30%” and the “scotopic response improvement over baseline” value (patient with dry AMD [6]; dry AMD patient, 20 uM bi-weekly for 3 months, follow up visit at 6 months) was 20%-30%. For the same molecule, the “growth of geographic atrophy by fundus autofluorescence compared to baseline” value (patient with dry AMD [6]; [8]) was “no progression” and the “scotopic response increased over baseline” value (patient with dry AMD [6]; dry AMD patient, 100 uL of 20 uM intravitreal every other week for 3 months, after last administration) was “about 30%”.
